Source: patent publication US20050048603A1 (priority 2001, published 2005)

B1: mycoAC holoenzyme expressed in E. coli (N-terminal His6-tag) (protein)
chain: MRGSHHHHHHGSMAARKCGAPPIAADGSTRRPDCVTAVRTQARAPTQHYAESVARRQRVLTITAWLAVVVTGSFALMQLATGAGGWYIALINVFTAVTFAIVPLLHRFGGLVAPLTFIGTAYVAIFAIGWDVGTDAGAQFFFLVAAALVVLLVGIEHTALAVGLAAVAAGLVIALEFLVPPDTGLQPPWAMSVSFVLTTVSACGVAVATVWFALRDTARAEAVMEAEHDRSEALLANMLPASIAERLKEPERNIIADKYDEASVLFADIVGFTERASSTAPADLVRFLDRLYSAFDELVDQHGLEKIKVSGDSYMVVSGVPRPRPDHTQALADFALDMTNVAAQLKDPRGNPVPLRVGLATGPVVAGVVGSRRFFYDVWGDAVNVASRMESTDSVGQIQVPDEVYERLKDDFVLRERGHINVKGKGVMRTWYLIGRKVAADPGEVRGAEPRTAGV

Key:
[1] = molecular target: mycoAC (adenylyl cyclase Rv1625c) (Mycobacterium tuberculosis, UniProt P9WQ35); format: biochemical

Molecule | acceptance as a substrate [1] | AC activity of the bacterial membrane preparation (P9WQ35) [nmol cAMP/mg·min^-1]
Mn-GTP | not accepted as a substrate | –
B1 | – | 19
